According to patent US8128943B2, “Use of oxazole derivatives for controlling fish parasites” (Novartis AG, priority 2005, dated 2012):

How the values were obtained:
salmon lice [1] = assay: Toxicity to salmon lice, contact action test in sea water beakers; assay type: in vivo, salmon louse; conditions: after 24 hours; lowest concentration of 5 μg/l in sea water, 10° C.; adult salmon lice
Procedure: Biological Examples 1. Toxicity to Salmon Lice (In Vitro Test) a) Collecting and Cultivating the Salmon Lice
Adult and pre-adult stages of the salmon louse are gently removed with broad forceps from naturally infected Atlantic salmon which have been kept in fish farms, separated according to stage and sex, and kept in sea water tanks at 10° C. and under continuous aeration. The sea water used for cultivating the lice comes from the fish farm from which the infected salmon have been taken. The tests themselves are carried out over 48 hours after collecting the lice.
b) In Vivo Test for Determining the Contact Action of the Control Agent
Into each of three test sets of three 500 ml-glass beakers, filled with sea water (salinity […], temperature 10° C.) containing 5, 500 and 5000 μg/l of the active substance, respectively, 5 female and 5 male adults of salmon lice are added. The beaker are then transferred to an incubator and held at 10° C. for 48 hours in the dark. Live survival of the salmon lice is determined at 1, 24 and 48 hours from the start of the exposure. All lice are examined and recorded as alive, moribund or dead.

salmon lice [2] = assay: Toxicity against salmon lice (in vivo test) on naturally infected Atlantic salmon, bath treatment; conditions: long lasting tests on salmon; one single treatment at 0.1 ppm
Procedure: 2. Toxicity Against Salmon Lice (In Vivo Test)
Five naturally infected Atlantic salmon are taken from the cage and transferred to well aerated sea water tanks. They remain there for 48 hours for acclimatization, and feed is withheld for 24 hours before the addition of test compound. A group of 5 salmon is treated at a concentration of 1.0 ppm of test compound, and a second group of 5 salmon is treated at a concentration of 0.1 ppm. The fish are kept for 24 hours in fresh sea water (without test compound) and a count is then made of dead and still living parasites. An untreated group of fish is also included in the evaluation. The test is carried out in triplicate.

fish = assay: Tolerance by fish in long lasting tests on salmon; assay type: in vivo
sea lice = conditions: in sea water; cited from earlier work

Compound	survival rate (salmon lice [1])	concentration required / effective to combat sea lice (sea lice)	further results
FC(F)(F)c1ccc(-c2ccc(C3COC(c4c(Cl)cccc4Cl)=N3)cc2)cc1 (centres unmarked) [2-(2,6-Dichlorophenyl)-4-(4′-trifluoromethylbiphenyl-4-yl)-4,5-dihydro-oxazole]	0%		
Fc1cccc(F)c1C1=NC(c2ccc(-c3ccc(C(F)(F)F)cc3)cc2)CO1 (centres unmarked) [2-(2,6-Difluorophenyl)-4-(4′-trifluoromethylbiphenyl-4-yl)-4,5-dihydro-oxazole]	0%		control (salmon lice [2]): 100%; duration of 100% control (salmon lice [2]): at least 3 month; tolerance by fish (fish): well tolerated by fish
Fc1cccc(Cl)c1C1=NC(c2ccc(-c3ccc(C(F)(F)F)cc3)cc2)CO1 (centres unmarked) [2-(2-Chloro-6-fluorophenyl)-4-(4′-trifluoromethylbiphenyl-4-yl)-4,5-dihydro-oxazole]	0%		
COP(=O)(OC)OC=C(Cl)Cl [Dichlorvos, 2,2-dichloroethenyldimethyl phosphate]		≥ 1 ppm	
COP(=O)(OC)C(O)C(Cl)(Cl)Cl (centres unmarked) [Trichlorfon, dimethyl-2,2,2-trichloro-1-hydroxyethylphosphonate]		300 ppm	
